Where a SMILES comes first, the peptide text is derived from it.
What was measured:
[1] = Compaction index of excipients; format: physicochemical; conditions: force to fracture a solid mass prepared by compaction of 500 mg of powder under 1000 lbs pressure, 16/32″ die, flat face punches
Excerpt: In some embodiments, the concentration of the non-polymeric water-soluble carrier, disintegrant, and water-insoluble polymer can be selected to optimize the physical integrity of the dosage forms of the present invention (i.e., to minimize the friability of the dosage forms of the present invention). Not being bound by any particular theory, the durability, robustness, and/or friability of the compressed dosage forms of the present invention can be estimated using the compaction index of the excipients used to prepare the dosage forms. As used herein, “compaction index” refers to the force in kiloponds (kp) required to fracture a solid mass prepared by compaction of 500 mg of powder under 1000 lbs pressure using a 16/32″ die and flat face punches. To obtain dosage forms having both low friability and low hardness, a mixture used to prepare the dosage forms can have a compaction index of at least about 5 kp/500 mg/1000 lbs. Not being bound by any particular theory, the compaction index can be used as an indicator of particle interactions in a compressed solid dosage form. For example, the compression of a dry mixture usually has a significant effect on the inter-particle interactions within the mixture, and can involve combinations of • (i) closer contact between particles and the exclusion of air; • (ii) alignment and interlocking of particles; • (iii) the development of stresses and shearing forces that result in fracture and the generation of smaller particles; • (iv) elastic and plastic deformations of particles that can change particle shape; and • (v) chemical bonding between adjacent particles, especially during long-term storage.
Depending on the properties of the excipients comprising the mixture, powdered mixtures can undergo elastic, plastic, or visco-elastic deformation, or brittle fracture, when placed under compressive force. After compression, a compressed dosage form tends to undergo elastic recovery, visco-elastic recovery or brittle fracture. […]

[2] = Particle size and particle size distribution of ingredients; format: physicochemical; conditions: for D50: median particle size of ingredient used for Dosage Form A; for D10 / D90: particle size distribution of ingredient used for Dosage Form A; for VMD: volume mean diameter D[4,3] of ingredient used for Dosage Form A
Excerpt: As used herein, the term “particle size” refers to particle diameter. Particle size and particle size distribution can be measured using, for example, a Hyac/Royco particle size analyzer, a Malvern particle size analyzer, a Beckman Coulter laser diffraction particle size analyzer, or a Shimadzu laser diffraction particle size analyzer. As used herein, the term “diameter” relates to a volumetric measurement based on an approximate spherical shape of a particle. In addition to encompassing free base clozapine particles of a given size, the present invention is also directed to formulations and solid oral dosage forms wherein the distribution of particle sizes of free base clozapine and the excipients are controlled. As used herein, a “distribution” refers to the number or concentration (i.e., percentage) of particles having a certain size, or range of sizes, within a given lot, batch, or solid oral dosage form of the present invention.
As used herein, “volume mean diameter,” when used in reference to the size of particles for use with the present invention, refers to the value of the volume moment mean as represented by D[4,3]. This value indicates the central point of frequency around which the distribution of surface area or volume rotates.
As used herein, the “median” particle size is synonymous with the “particle size D50,” in microns. For example, for the five particle values listed above, the median diameter, or particle size D50, would be 20 μm.
As used herein, “particle size D90,” refers a mixture wherein about 90% of all measurable particles have a diameter equal to or less than the value D90, in microns, and 10% of the measurable particles have a diameter greater than the value of D90, in microns.
The particle size and particle size distribution of the various excipient used in the particulate mixture of the present invention are listed in Table 2.

Row | Compound | Compaction index [1] [kp/500 mg/1000 lbs] | D50 [2] [μm] | D10 [2] [μm] | D90 [2] [μm] | VMD [2] [μm]
1 | COC(=O)[C@H](Cc1ccccc1)NC(=O)[C@@H](N)CC(=O)O [Aspartame] (H-Asp-Phe-OMe) | 10 |  |  |  | 
2 | CN1CCN(C2=Nc3cc(Cl)ccc3Nc3ccccc32)CC1 [Free base clozapine, 8-chloro-11-(4-methyl-1-piperazinyl)-5H-dibenzo[b,e][1,4]diazepine, reference compound] |  | 19 | 5 | 51 | 25
3 | OC[C@@H](O)[C@@H](O)[C@H](O)[C@H](O)CO [Mannitol] | 9 | 221 | 81 | 507 | 263
4 | OC[C@@H](O)[C@H](O)[C@@H](O)CO [Xylitol] | 0.7 | 167 | 86 | 310 | 184
